According to patent publication US20260053837A1, “NICOTINAMIDE-RIBOSIDE AND PTEROSTILBENE COMBINATIONS TO TREAT OSTEOARTHRITIS” (The Regents of the University of California, priority 2022, published 2026):

How the values were obtained:
injury-induced OA model = experiment: pain behavior in injury-induced OA model (DMM surgery; Von Frey test, static weight bearing); type: in vivo, mice; settings: NR 400 mg/kg/day, PT 80 mg/kg/day
Method: In vivo studies were designed to determine if oral supplementation of NR+PT (5:1) with NR at 400 mg/kg/day (the commonly used dose in animal studies) and PT at 80 mg/kg/day is better than NR alone (400 mg/kg/day) or PT alone (80 mg/kg/day), in limiting cartilage degradation and reducing pain in an injury-induced OA model. […] Because synergistic or additive effect of NR+PT combination was not initially observed, in vitro studies tested the combination of NR and PT at different ratio (NR:PT, 1:1, 2:1, 4:1, 6:1) and different concentrations (based on PT concentration at 25, 50 and 100 uM) on chondrocyte response to IL-1beta. Because IL-1b is known to induce nitric oxide (NO) production in chondrocytes, NO release (measured from the conditioned media) was used as a readout. It was determined that NR+PT at 2:1 ratio had the best efficacy in inhibition of IL-1b induced NO release, particularly for NR at 0.1 mM and PT at 0.05 mM. […] See, FIGS. 1 and 2. C57BL/6J mice at 12 weeks of age were subjected to joint injury via destabilization of medial meniscus (DMM) surgery through transection of meniscotibial ligament. Sham surgery (just skin incision) was performed on separate group of mice. […] Pain-like behaviors was evaluated at baseline (1 weeks before the surgery) and 2, 4, 6, 8 and 10 weeks after DMM surgery. • 1. […]

[1] = cited from earlier work

NC(=O)c1ccc[n+]([C@@H]2O[C@H](CO)[C@@H](O)[C@H]2O)c1 [NR, nicotinamide riboside]
efficacy on pain, comparison among treatment groups (injury-induced OA model; NR+PT 5:1, gavage daily): slightly better efficacy | pain compared to the non-treated controls (injury-induced OA model; NR+PT 5:1, gavage daily after DMM surgery): significantly less pain | reduction of conversion of NR to NAM ([1]; germ-free mice after oral intake): 3 fold | stability of NR in gut and circulation ([1]; mouse, in vivo): rapidly degraded to NAM
